According to ChEMBL document CHEMBL1151911, “A microwave-assisted facile regioselective Fischer indole synthesis and antitubercular evaluation of novel 2-aryl-3,4-dihydro-2H-thieno[3,2-b]indoles” (2009):
Converted amounts (≈) assume the structure as drawn.

System: Mycobacterium tuberculosis
Assay: Antimycobacterial activity against Mycobacterium tuberculosis H37Rv
Type: functional

Row | Compound | MIC
1 | Fc1ccc2[nH]c3c(c2c1)SC(c1ccccc1Cl)C3 (stereo unspecified) | 1.76 µg/mL (≈ 5.79 µM)
2 | Cc1ccc(C2Cc3[nH]c4ccccc4c3S2)cc1 (stereo unspecified) | 6.25 µg/mL (≈ 23.6 µM)
3 | Fc1ccc2[nH]c3c(c2c1)SC(c1ccc(Cl)cc1Cl)C3 (stereo unspecified) | 0.4 µg/mL (≈ 1.18 µM)
4 | Brc1ccccc1C1Cc2[nH]c3ccccc3c2S1 (stereo unspecified) | 3.13 µg/mL (≈ 9.48 µM)
5 | Clc1ccc2[nH]c3c(c2c1)SC(c1ccccc1)C3 (stereo unspecified) | 12.5 µg/mL (≈ 43.7 µM)
6 | Fc1cccc(C2Cc3[nH]c4ccccc4c3S2)c1 (stereo unspecified) | 3.13 µg/mL (≈ 11.6 µM)
7 | CC[C@@H](CO)NCCN[C@@H](CC)CO [ETHAMBUTOL] | 1.56 µg/mL (≈ 7.64 µM)
8 | NC(=O)c1cnccn1 [PYRAZINAMIDE] | 6.25 µg/mL (≈ 50.8 µM)
9 | Clc1ccc(C2Cc3[nH]c4ccccc4c3S2)cc1 (stereo unspecified) | 12.5 µg/mL (≈ 43.7 µM)
10 | Clc1ccc(C2Cc3[nH]c4ccc(Cl)cc4c3S2)cc1 (stereo unspecified) | 12.5 µg/mL (≈ 39 µM)
11 | NNC(=O)c1ccncc1 [ISONIAZID] | 0.05 µg/mL (≈ 0.365 µM)
12 | CC(C)c1ccc(C2Cc3[nH]c4ccc(Cl)cc4c3S2)cc1 (stereo unspecified) | 0.78 µg/mL (≈ 2.38 µM)
13 | c1ccc(C2Cc3[nH]c4ccccc4c3S2)cc1 (stereo unspecified) | 25 µg/mL (≈ 99.5 µM)
14 | Clc1ccc2[nH]c3c(c2c1)SC(c1ccccc1Cl)C3 (stereo unspecified) | 3.13 µg/mL (≈ 9.77 µM)
15 | Cc1ccc(C2Cc3[nH]c4ccc(F)cc4c3S2)cc1 (stereo unspecified) | 3.13 µg/mL (≈ 11 µM)
16 | Clc1ccc(C2Cc3[nH]c4ccccc4c3S2)c(Cl)c1 (stereo unspecified) | 1.76 µg/mL (≈ 5.5 µM)
17 | Fc1ccc(C2Cc3[nH]c4ccc(Cl)cc4c3S2)cc1 (stereo unspecified) | 3.13 µg/mL (≈ 10.3 µM)
18 | CO[C@H]1/C=C/O[C@@]2(C)Oc3c(C)c(O)c4c(O)c(c(/C=N/N5CCN(C)CC5)c(O)c4c3C2=O)NC(=O)/C(C)=C\C=C\[C@H](C)[C@H](O)[C@@H](C)[C@@H](O)[C@@H](C)[C@H](OC(C)=O)[C@@H]1C [RIFAMPIN] | 0.1 µg/mL (≈ 0.122 µM)
19 | CC(C)c1ccc(C2Cc3[nH]c4ccc(F)cc4c3S2)cc1 (stereo unspecified) | 0.78 µg/mL (≈ 2.5 µM)
20 | Cc1ccc(C2Cc3[nH]c4ccc(Cl)cc4c3S2)cc1 (stereo unspecified) | 6.25 µg/mL (≈ 20.8 µM)
21 | Fc1ccc2[nH]c3c(c2c1)SC(c1ccccc1)C3 (stereo unspecified) | 6.25 µg/mL (≈ 23.2 µM)
22 | Clc1ccccc1C1Cc2[nH]c3ccccc3c2S1 (stereo unspecified) | 6.25 µg/mL (≈ 21.9 µM)
23 | Fc1ccc2[nH]c3c(c2c1)SC(c1ccc(Cl)cc1)C3 (stereo unspecified) | 1.56 µg/mL (≈ 5.14 µM)
24 | CC(C)c1ccc(C2Cc3[nH]c4ccccc4c3S2)cc1 (stereo unspecified) | 0.78 µg/mL (≈ 2.66 µM)
25 | O=[N+]([O-])c1cccc(C2Cc3[nH]c4ccccc4c3S2)c1 (stereo unspecified) | 1.76 µg/mL (≈ 5.94 µM)
26 | Clc1ccc(C2Cc3[nH]c4ccc(Cl)cc4c3S2)c(Cl)c1 (stereo unspecified) | 0.78 µg/mL (≈ 2.2 µM)
